Tests used:
Type in all cases: in vivo
Alopecurus myosuroides [1] = test: Post-emergence herbicidal efficacy at 320 g/ha, ALOMY; details: rated visually after about 3 weeks vs untreated controls, 100% = plants have died
Method in brief: (§1)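 Visual rating about 3 weeks after treatment, scored against untreated plants on a scale from 0% (no effect) to 100% (dead). Application was foliar, as aqueous WP or EC suspension or emulsion with 0.5% additive at 600 L/ha, on one-leaf-stage greenhouse plants 2–3 weeks old, grown in sandy loam.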

Veronica persica [2] = test: Post-emergence herbicidal efficacy at 320 g/ha, VERPE; details: rated visually after about 3 weeks vs untreated controls, 100% = plants have died
Method in brief: as §1

Abutilon theophrasti [3] = test: Post-emergence herbicidal efficacy at 80 g/ha, ABUTH; details: rated visually after about 3 weeks vs untreated controls, 100% = plants have died
Description: (§2) Unwanted plants/weeds: • ABUTH: Abutilon theophrasti • ALOMY: Alopecurus myosuroides • AMARE: Amaranthus retroflexus • DIGSA: Digitaria sanguinalis • ECHCG: Echinochloa crus-galli • KCHSC: Kochia scoparia • LOLRI: Lolium rigidum • MATIN: Matricaria inodora • POAAN: Poa annua • POLCO: Polygonum convolvulus • SETVI: Setaria viridis • STEME: Stellaria media • VERPE: Veronica persica • VIOTR: Viola tricolor A. Post-Emergence Herbicidal Efficacy at 320 g/ha
(§3) Seeds of monocotyledonous and dicotyledonous weeds and crop plants were placed in sandy loam in plastic or organic planting pots, covered with soil and cultivated in a greenhouse under controlled growth conditions. 2 to 3 weeks after sowing, the test plants were treated at the one-leaf stage. The compounds of the invention, formulated in the form of wettable powders (WP) or as emulsion concentrates (EC), were then sprayed onto the green parts of the plants as aqueous suspension or emulsion with addition of 0.5% additive at a water application rate of 600 l/ha (converted). After the test plants had been kept in the greenhouse under optimum growth conditions for about 3 weeks, the activity of the preparations was rated visually in comparison to untreated controls. For example, 100% activity=the plants have died, 0% activity=like control plants.
(§4) Tables B1 to B11 below show the effects of selected compounds of the general formula (I) according to Table 1 on various harmful plants and an application rate corresponding to 80 g/ha, which were obtained by the experimental procedure mentioned above.

Abutilon theophrasti [4] = test: Post-emergence herbicidal efficacy at 320 g/ha, ABUTH; details: rated visually after about 3 weeks vs untreated controls, 100% = plants have died
Method in brief: as §1

Amaranthus retroflexus [5] = test: Pre-emergence herbicide efficacy at 320 g/ha, AMARE; details: scored visually after about 3 weeks vs untreated controls, 100% = plants have died
Method in brief: (§5)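 Sandy loam pots, seeds covered with soil; WP/EC formulation applied to soil surface, 0.5% additive, 600 L/ha water. Greenhouse ~3 weeks. Visual % damage vs untreated (0% = like control, 100% = dead).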

Amaranthus retroflexus [6] = test: Pre-emergence herbicide efficacy at 80 g/ha, AMARE; details: scored visually after about 3 weeks vs untreated controls, 100% = plants have died
Method in brief: (§6)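 Visual scoring after about 3 weeks in the greenhouse, expressed as percent activity against untreated controls, where 100% means dead plants and 0% means no difference. Treatment was applied pre-emergence to the covering soil over sown seeds, as WP or EC in water with 0.5% additive, 600 l/ha.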

Stellaria media [7] = test: Pre-emergence herbicide efficacy at 320 g/ha, STEME; details: scored visually after about 3 weeks vs untreated controls, 100% = plants have died
Method in brief: as §5

Polygonum convolvulus [8] = test: Pre-emergence herbicide efficacy at 80 g/ha, POLCO; details: scored visually after about 3 weeks vs untreated controls, 100% = plants have died
Method in brief: as §6

Alopecurus myosuroides [9] = test: Post-emergence herbicidal efficacy at 80 g/ha, ALOMY; details: rated visually after about 3 weeks vs untreated controls, 100% = plants have died
Description: as §2, §3, §4

Veronica persica [10] = test: Pre-emergence herbicide efficacy at 80 g/ha, VERPE
Method in brief: as §6

Digitaria sanguinalis [11] = test: Pre-emergence herbicide efficacy at 320 g/ha, DIGSA; details: scored visually after about 3 weeks vs untreated controls, 100% = plants have died
Method in brief: as §5

Setaria viridis [12] = test: Pre-emergence herbicide efficacy at 80 g/ha, SETVI
Method in brief: as §6

Kochia scoparia [13] = test: Post-emergence herbicidal efficacy at 320 g/ha, KCHSC; details: rated visually after about 3 weeks vs untreated controls, 100% = plants have died
Method in brief: as §1

Stellaria media [14] = test: Post-emergence herbicidal efficacy at 320 g/ha, STEME; details: rated visually after about 3 weeks vs untreated controls, 100% = plants have died
Method in brief: as §1

Abutilon theophrasti [15] = test: Pre-emergence herbicide efficacy at 320 g/ha, ABUTH; details: scored visually after about 3 weeks vs untreated controls, 100% = plants have died
Method in brief: as §5

Digitaria sanguinalis [16] = test: Post-emergence herbicidal efficacy at 320 g/ha, DIGSA; details: rated visually after about 3 weeks vs untreated controls, 100% = plants have died
Method in brief: as §1

Poa annua [17] = test: Post-emergence herbicidal efficacy at 320 g/ha, POAAN; details: rated visually after about 3 weeks vs untreated controls, 100% = plants have died
Method in brief: as §1

Kochia scoparia [18] = test: Pre-emergence herbicide efficacy at 320 g/ha, KCHSC; details: scored visually after about 3 weeks vs untreated controls, 100% = plants have died
Method in brief: as §5

Veronica persica [19] = test: Pre-emergence herbicide efficacy at 320 g/ha, VERPE; details: scored visually after about 3 weeks vs untreated controls, 100% = plants have died
Method in brief: as §5

Viola tricolor = test: Pre-emergence herbicide efficacy at 80 g/ha, VIOTR
Method in brief: as §6

Polygonum convolvulus [20] = test: Post-emergence herbicidal efficacy at 80 g/ha, POLCO; details: rated visually after about 3 weeks vs untreated controls, 100% = plants have died
Description: as §2
as §3, with “plants. […]” for “plants.”

Poa annua [21] = test: Pre-emergence herbicide efficacy at 320 g/ha, POAAN; details: scored visually after about 3 weeks vs untreated controls, 100% = plants have died
Method in brief: as §5

Amaranthus retroflexus [22] = test: Post-emergence herbicidal efficacy at 320 g/ha, AMARE; details: rated visually after about 3 weeks vs untreated controls, 100% = plants have died
Method in brief: as §1

Veronica persica [23] = test: Post-emergence herbicidal efficacy at 80 g/ha, VERPE; details: rated visually after about 3 weeks vs untreated controls, 100% = plants have died
Method in brief: (§7)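 Greenhouse post-emergence spray, one-leaf stage (2–3 wk after sowing, sandy loam). Cpd as WP/EC, aqueous + 0.5% additive, 600 l/ha water. Visual rating ~3 wk post-treatment vs untreated; 0% = as control, 100% = plants dead.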

PHBPU = test: Post-emergence herbicidal efficacy at 80 g/ha, PHBPU; details: rated visually after about 3 weeks vs untreated controls, 100% = plants have died
Method: as §3, with “plants. Tables B1 to B11 below show the effects of selected compounds of the general formula (I) according to Table 1 on various harmful plants and an application rate corresponding to 80 g/ha, which were obtained by the experimental procedure mentioned above.” for “plants.”

Setaria viridis [24] = test: Pre-emergence herbicide efficacy at 320 g/ha, SETVI; details: scored visually after about 3 weeks vs untreated controls, 100% = plants have died
Method in brief: as §5

Amaranthus retroflexus [25] = test: Post-emergence herbicidal efficacy at 80 g/ha, AMARE; details: rated visually after about 3 weeks vs untreated controls, 100% = plants have died
Method in brief: as §7

`FC(F)c1cc(-c2ccccc2Nc2ncc(Cl)cn2)on1` [Example 1-31] was tested, and the “Post-emergence efficacy at 320 g/ha against ALOMY in %” value (Alopecurus myosuroides [1]) was 100%, the “Post-emergence efficacy at 320 g/ha against VERPE in %” value (Veronica persica [2]) was 100% and the “Post-emergence efficacy at 80 g/ha against ABUTH in %” value (Abutilon theophrasti [3]) was 80%. For the same compound, the “Post-emergence efficacy at 320 g/ha against ABUTH in %” value (Abutilon theophrasti [4]) was 100%, the “Pre-emergence efficacy at 320 g/ha against AMARE in %” value (Amaranthus retroflexus [5]) was 100% and the “Pre-emergence efficacy at 80 g/ha against AMARE in %” value (Amaranthus retroflexus [6]) was 100%. The “Pre-emergence efficacy at 320 g/ha against STEME in %” value (Stellaria media [7]) was 100%, the “Pre-emergence efficacy at 80 g/ha against POLCO in %” value (Polygonum convolvulus [8]) was 80% and the “Post-emergence efficacy at 80 g/ha against ALOMY in %” value (Alopecurus myosuroides [9]) was 80%. For the same compound, the “Pre-emergence efficacy against VERPE” value (Veronica persica [10]) was 90%, the “Pre-emergence efficacy at 320 g/ha against DIGSA in %” value (Digitaria sanguinalis [11]) was 100% and the “Pre-emergence efficacy against SETVI” value (Setaria viridis [12]) was 100%. The “Post-emergence efficacy at 320 g/ha against KCHSC in %” value (Kochia scoparia [13]) was 100%, the “Post-emergence efficacy at 320 g/ha against STEME in %” value (Stellaria media [14]) was 100% and the “Pre-emergence efficacy at 320 g/ha against ABUTH in %” value (Abutilon theophrasti [15]) was 90%. For the same compound, the “Post-emergence efficacy at 320 g/ha against DIGSA in %” value (Digitaria sanguinalis [16]) was 100%, the “Post-emergence efficacy at 320 g/ha against POAAN in %” value (Poa annua [17]) was 100% and the “Pre-emergence efficacy at 320 g/ha against KCHSC in %” value (Kochia scoparia [18]) was 90%. For the same compound, the “Pre-emergence efficacy at 320 g/ha against VERPE in %” value (Veronica persica [19]) was 100%, the “Pre-emergence efficacy against VIOTR” value (Viola tricolor) was 90% and the “Post-emergence efficacy at 80 g/ha against POLCO in %” value (Polygonum convolvulus [20]) was 100%. The “Pre-emergence efficacy at 320 g/ha against POAAN in %” value (Poa annua [21]) was 100%, the “Post-emergence efficacy at 320 g/ha against AMARE in %” value (Amaranthus retroflexus [22]) was 100% and the “Post-emergence efficacy at 80 g/ha against VERPE in %” value (Veronica persica [23]) was 90%. The “Post-emergence efficacy at 80 g/ha against PHBPU in %” value (PHBPU) was 80%, the “Pre-emergence efficacy at 320 g/ha against SETVI in %” value (Setaria viridis [24]) was 100% and the “Post-emergence efficacy at 80 g/ha against AMARE in %” value (Amaranthus retroflexus [25]) was 90%.

Reference: US20250311727A1, “SUBSTITUTED 2-AMINOAZINES AND SALTS THEREOF, AND USE THEREOF AS HERBICIDAL ACTIVE SUBSTANCES” (BAYER AKTIENGESELLSCHAFT, priority 2022, published 2025)
